Among the data in PubChem BioAssay (NCI) are TGI and GI50 values, retold here.

Molecules are shown by their SMILES. Several values for one entry are separate records, joined by “and”; a condition that tells them apart may be missing. Identical values can stand only once.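 Growth conditions: 96-well plates. Treatment: test compound, 48 hours, 5 concentrations. Analysis: linear interpolation between bracketing concentrations; unreached endpoints set to highest concentration. GI50 = concentration required for 50% inhibition of growth. TGI: concentration producing complete growth inhibition.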

Among the test systems are SNB-78 CNS; DMS 273 small cell lung; DMS 114 small cell lung; XF 498 CNS; M19-MEL melanoma; LXFL 529 NSCLC; DU-145 prostate; HS 578T breast; NCI/ADR-RES ovarian; MDA-MB-435.
Assay in all cases: NCI tumour cell line growth inhibition, 48 h

For the compound `CCOC(=O)C(=[N+]=[N-])[Si](C)(C)C`, the TGI in the experiment on SNB-78 CNS, in the experiment on DMS 273 small cell lung, in the experiment with DMS 114 small cell lung, in the experiment on XF 498 CNS and with M19-MEL melanoma was over 100 µM in each case.
In the case of `CN(C)CC1CCCC/C1=N/OC(=O)c1ccc(Cl)cc1` (configuration not stated), the TGI with LXFL 529 NSCLC, in the experiment on SNB-78 CNS, with DMS 273 small cell lung, in the experiment on XF 498 CNS and with M19-MEL melanoma was over 100 µM each time.
In the case of `N#CC(C(=O)C(=O)C(C#N)c1ccc(Br)cc1)c1ccc(Br)cc1` (configuration not stated), the TGI with SNB-78 CNS was determined as 37.4 µM; with DMS 273 small cell lung, 24.9 µM; with DMS 114 small cell lung, 26.5 µM; in the experiment on M19-MEL melanoma, 25.8 µM.
As to `C1=CC(N(c2ccccc2)C2C=CCCC2)CCC1` (configuration not stated), the TGI in the experiment on LXFL 529 NSCLC, in the experiment on DMS 273 small cell lung, in the experiment on DMS 114 small cell lung and in the experiment on M19-MEL melanoma was over 100 µM in each case.
In the case of `Cc1[nH]c2ccccc2c1C(=O)/C=C/c1ccccc1O`, the TGI with LXFL 529 NSCLC, in the experiment on DMS 273 small cell lung, in the experiment on XF 498 CNS and in the experiment with M19-MEL melanoma was over 100 µM throughout.
`COC(=O)C(Cc1nc2ccc(Cl)cc2[nH]c1=O)/C(=N\N)C(=O)Nc1cc(C)c(Cl)cc1S(=O)(=O)O` (configuration not stated): the TGI with LXFL 529 NSCLC, in the experiment on SNB-78 CNS and with DMS 114 small cell lung was over 100 µM throughout.
Turning to `COc1ccc(NC(=O)/C(Cc2cc(=O)oc3cc(O)ccc23)=N\NC(C)(C)C)c(OC)c1`, the TGI in the experiment with LXFL 529 NSCLC, with SNB-78 CNS, in the experiment with XF 498 CNS and in the experiment on M19-MEL melanoma was over 100 µM each time.
Regarding `CCOc1ccc(NC(=O)CC#N)cc1`, the TGI in the experiment with LXFL 529 NSCLC, in the experiment on SNB-78 CNS, with DMS 273 small cell lung, with XF 498 CNS and with M19-MEL melanoma was over 100 µM each time.
As to `COc1cc2c(c(OC)c1OC)-c1ccc(SC)c(=O)cc1C(NC=O)CC2` (configuration not stated), the TGI in the experiment with DU-145 prostate was under 0.01 µM; in the experiment with HS 578T breast, over 75.5 µM; in the experiment on SNB-78 CNS it was over 100 µM; in the experiment with NCI/ADR-RES ovarian, 0.273 µM; in the experiment with DMS 273 small cell lung it was over 100 µM; in the experiment on DMS 114 small cell lung it was under 0.01 µM. Also, the TGI with XF 498 CNS was over 100 µM; in the experiment on M19-MEL melanoma it was over 100 µM; with MDA-MB-435 it was under 0.01 µM.
As for `CC(=O)Oc1c2c(c(O)c3ccccc13)C(n1cnc3c(ncn3C3OC(CO)C4OC(C)(C)OC43)c1=N)CCC2` (configuration not stated), the TGI in the experiment with SNB-78 CNS was 59.6 µM; in the experiment with DMS 273 small cell lung, 40.6 µM; in the experiment with DMS 114 small cell lung, 21.7 µM; in the experiment with M19-MEL melanoma, 23.8 µM.
Regarding `CN1CCOC(c2ccccc2)O1` (configuration not stated), the TGI in the experiment on LXFL 529 NSCLC, in the experiment on SNB-78 CNS, in the experiment with DMS 273 small cell lung, in the experiment on DMS 114 small cell lung and with M19-MEL melanoma was over 100 µM throughout.
With `O=c1ccn([C@H]2CSC[C@@H](CO)C2)c(=O)[nH]1`, the TGI with LXFL 529 NSCLC, in the experiment with SNB-78 CNS, with DMS 273 small cell lung, in the experiment with DMS 114 small cell lung and in the experiment with M19-MEL melanoma was over 100 µM each time.
In the case of `O=C(CCc1n[nH]c(=S)o1)Nc1ccccc1C(F)(F)F`, the TGI with LXFL 529 NSCLC, in the experiment with SNB-78 CNS, with DMS 273 small cell lung, with DMS 114 small cell lung and in the experiment on M19-MEL melanoma was over 100 µM throughout.
For `COC1(OC)C(N(C)C)=C(Cl)C(=O)/C1=C/C=O`, the TGI with LXFL 529 NSCLC, with DMS 273 small cell lung, in the experiment on DMS 114 small cell lung and with M19-MEL melanoma was over 100 µM throughout.
On to `CCOc1ccccc1NC(=O)C(=O)CC(=O)c1sc(Nc2nnc(-c3ccc(Cl)c(Cl)c3)o2)nc1C`, for which the TGI in the experiment on LXFL 529 NSCLC, in the experiment on SNB-78 CNS, in the experiment on DMS 273 small cell lung, in the experiment with DMS 114 small cell lung and with M19-MEL melanoma was over 100 µM each time.
Take `CCC(C)COC(=O)c1ccc(N=Cc2ccc(C=Nc3ccc(C(=O)OCC(C)CC)cc3)cc2)cc1` (configuration not stated): the TGI with LXFL 529 NSCLC, in the experiment on SNB-78 CNS, in the experiment with DMS 273 small cell lung and in the experiment on DMS 114 small cell lung was over 100 µM in each case.
Consider `CC1c2c(Cl)nc3ccccc3c2Oc2c1c(Cl)nc1ccccc21`, for which the TGI in the experiment on LXFL 529 NSCLC, in the experiment with SNB-78 CNS, in the experiment with DMS 273 small cell lung, in the experiment with DMS 114 small cell lung and with M19-MEL melanoma was over 100 µM each time.
Consider `CC1CN(C(=O)CN2CCC(CCCCN(C)C)CC2)c2ccccc2NC1=O` (configuration not stated), for which the TGI with LXFL 529 NSCLC, in the experiment on DMS 273 small cell lung, with DMS 114 small cell lung and in the experiment on M19-MEL melanoma was over 100 µM in each case.
For `O=C(Nc1nc(=S)c2c(ncn2CCOC(=O)c2ccccc2)[nH]1)c1ccccc1`, the TGI with LXFL 529 NSCLC, in the experiment with SNB-78 CNS, in the experiment with DMS 273 small cell lung, with DMS 114 small cell lung and in the experiment with M19-MEL melanoma was over 100 µM in each case.
Take `Cc1ccc(/C=C/C(=O)c2sc(-c3nc(C)c(C(=O)/C=C/c4ccc(C)cc4)s3)nc2C)cc1`: the TGI in the experiment with SNB-78 CNS, in the experiment with DMS 273 small cell lung, with DMS 114 small cell lung and in the experiment with M19-MEL melanoma was over 100 µM throughout.
As to `COc1cc(NCc2ccc3nc(N)nc(N)c3c2C)cc(OC)c1OC` (tested in a mixture with another compound), the GI50 in the experiment on DU-145 prostate is 0.172 µM and 0.025 µM; in the experiment on HS 578T breast it was 29 µM and 8.3 µM; with MDA-MB-435, 0.000388 µM. Moreover, the TGI in the experiment with DU-145 prostate worked out at 38.2 µM; with SNB-78 CNS, 116 µM; in the experiment on NCI/ADR-RES ovarian, 229 µM; in the experiment with DMS 273 small cell lung, 12.3 µM; in the experiment with DMS 114 small cell lung, 37.7 µM; with XF 498 CNS, 8.19 µM. Besides, the TGI was determined as 52.5 µM with M19-MEL melanoma and 50.1 µM with MDA-MB-435.
`COc1ccc2[nH]cc(C3(c4c[nH]c5ccc(OC)cc45)C(=O)Nc4ccc(F)cc43)c2c1`: the GI50 with DU-145 prostate was 3.71 µM; with HS 578T breast, 3.13 µM; in the experiment on NCI/ADR-RES ovarian, 5.76 µM; in the experiment with MDA-MB-435, 1.97 µM. Moreover, the TGI with DU-145 prostate came out at 13.1 µM; in the experiment on HS 578T breast, 14.8 µM; in the experiment on NCI/ADR-RES ovarian, 31.1 µM; with MDA-MB-435, 4.73 µM.
In the case of `O=C(O)Cc1cc(Cl)ccc1O`, the TGI with DU-145 prostate, in the experiment on HS 578T breast, in the experiment with NCI/ADR-RES ovarian and in the experiment with MDA-MB-435 was over 100 µM in each case.
Turning to `Nc1nc(/C=C\c2ccc([N+](=O)[O-])s2)nc(N2CCCC2)n1`, the GI50 in the experiment with DU-145 prostate was 2.47 µM; in the experiment with HS 578T breast, 12.9 µM; in the experiment on NCI/ADR-RES ovarian it was 4.51 µM; in the experiment with MDA-MB-435, 2.24 µM. Moreover, the TGI with DU-145 prostate was determined as 16.4 µM; in the experiment on HS 578T breast, 59.7 µM; in the experiment on NCI/ADR-RES ovarian, 23.2 µM; in the experiment on MDA-MB-435, 8.09 µM.
In the case of `O=C1Nc2ccccc2/C1=N\[O-].O=C1Nc2ccccc2/C1=N\[O-].[Cu+2]`, the GI50 with DU-145 prostate, in the experiment with HS 578T breast, in the experiment on NCI/ADR-RES ovarian and in the experiment on MDA-MB-435 was over 100 µM each time. The TGI in the experiment with DU-145 prostate, with HS 578T breast, in the experiment on NCI/ADR-RES ovarian and in the experiment with MDA-MB-435 was over 100 µM in each case.
Take `O=C1OCC2=C1C(c1cccc(Br)c1)c1cc3c(cc1N2CCO)CCC3` (configuration not stated): the GI50 with DU-145 prostate was 0.137 µM; in the experiment on HS 578T breast it was 0.151 µM; with NCI/ADR-RES ovarian it was 0.025 µM; in the experiment on MDA-MB-435 it was 0.0132 µM. The TGI in the experiment on DU-145 prostate turned out to be 0.466 µM; in the experiment on HS 578T breast it was 11.4 µM; in the experiment with NCI/ADR-RES ovarian, 0.234 µM; in the experiment with MDA-MB-435 it was 0.0423 µM.
With `CCOC(=O)C(Cc1ccc(CCCC(=O)NCCC(=O)Nc2ccc3nc(C)sc3c2)cc1)C(=O)OCC`, the GI50 in the experiment with DU-145 prostate is 51.1 µM; with HS 578T breast, 68.3 µM; in the experiment with NCI/ADR-RES ovarian it was 24.6 µM; in the experiment with MDA-MB-435, 26 µM. For the same compound, the TGI with DU-145 prostate was over 100 µM; in the experiment with HS 578T breast it was over 100 µM; in the experiment on NCI/ADR-RES ovarian, 69.1 µM; in the experiment on MDA-MB-435, 76.5 µM.
Consider `CCn1c2ccccc2c2cc(NC(=O)Nc3ccc([N+](=O)[O-])cc3C)ccc21`, for which the GI50 was 5.38 µM in the experiment on DU-145 prostate, 2.2 µM with HS 578T breast, 4.65 µM in the experiment with NCI/ADR-RES ovarian and 2.62 µM with MDA-MB-435. The TGI in the experiment on DU-145 prostate was over 100 µM; with HS 578T breast it was 8 µM; with NCI/ADR-RES ovarian it was over 100 µM; in the experiment with MDA-MB-435, 23.5 µM.
Turning to `CC[C@H]1[C@@H]2C=C[C@@H]3[C@H]4C/C=C\C(=O)NCCC[C@@H]5NC(=O)/C(=C(O)/C=C/[C@@H]4C[C@@H]3[C@H]2C[C@H]1C)C5=O`, the GI50 in the experiment on DU-145 prostate is 0.715 µM; in the experiment on HS 578T breast, 1.44 µM; with NCI/ADR-RES ovarian, 0.815 µM; in the experiment with MDA-MB-435, 0.982 µM. Besides, the TGI with DU-145 prostate came out at 1.94 µM; in the experiment with HS 578T breast, 3.81 µM; in the experiment with NCI/ADR-RES ovarian it was 2.36 µM; with MDA-MB-435, 2.25 µM.
Turning to `Clc1ccc2[nH]cc(-c3nnnn3-c3ccccc3)c2c1`, the GI50 with DU-145 prostate was 24.5 µM; in the experiment with HS 578T breast, 15.4 µM; in the experiment on NCI/ADR-RES ovarian, 7.61 µM; in the experiment on MDA-MB-435 it was 1.64 µM. Also, the TGI was over 76.6 µM in the experiment with DU-145 prostate, over 60.8 µM with HS 578T breast, 41.8 µM with NCI/ADR-RES ovarian and 4.16 µM in the experiment with MDA-MB-435.
